# Data published in patent US4980377A, “1-(aminophenyl)-2-aminopropanone derivatives” (Laboratoire L. Lafon, priority 1984, dated 1990).
# “Also recorded” adds a separate entry of the source.
# Legend:
# mice [1] = assay: Interaction with apomorphine in mice; type: in vivo, mouse; settings: i.p.
# Protocol: Groups of 6 mice receive CRL 41 153 0.5 hour before the subcutaneous injection of 1 or 16 mg/kg of apomorphine.
# CNS [2] = assay: Neuropsychopharmacological profile as a whole; type: in vivo, mice and rats
# Protocol: (§1) In the neuropsychopharmacological study which follows, a solution of CRL 41 153 in distilled water (pH 1.5) was administered intraperitoneally in a volume of 20 ml/kg to male mice and 5 ml/kg to male rats.
# rats [3] = assay: Interaction with apomorphine in rats; type: in vivo, rat; settings: i.p.
# Protocol: CRL 41 153 is administered to groups of 6 rats 0.5 hour before the subcutaneous injection of 0.5 mg/kg of apomorphine.
# mice [4] = assay: Interaction with barbital; type: in vivo, mouse; settings: i.p., barbital 220 mg/kg
# Protocol: Half an hour after the administration of CRL 41 153, groups of 10 mice receive an intraperitoneal injection of barbital (220 mg/kg).
# [5] = system: nigrostriatal dopaminergic system; assay: Interaction with alpha-methyltyrosine on stereotypies (difference from amphetamine); settings: α-methyltyrosine (catecholamine synthesis blocked)
# [6] = system: gravid White New Zealand female rabbits; assay: Teratogenicity in gravid White New Zealand rabbits; type: in vivo, rabbit; settings: day 5 to day 18 of gestation; for Affected foetuses, %: normal limit 1.5%
# Method in brief: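 Fetuses harvested by cesarean on gestation day 29 were scored for number and for any malformation (limb blockade, anury, tail or skull defects, exencephaly).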
# mice [7] = assay: Interaction with oxotremorine; type: in vivo, mouse; settings: i.p.
# Protocol: CRL 41 153 is administered to groups of 6 mice 0.5 hour before the intraperitoneal injection of 0.5 mg/kg of oxotremorine.
# mice [8] = assay: Spontaneous motility; type: in vivo, mouse; settings: i.p.
# Protocol: 0.5 hour after they have received CRL 41 153, the mice (6 per dose, 12 control animals) are placed in an actimeter, where their motility is recorded for 30 minutes.
# mice [9] = assay: Overall behavior and reactivities in mice; type: in vivo, mouse; settings: dose not stated
# Protocol: as §1
# (§2) Groups of three animals are observed before and then 0.25 hour, 0.50 hour, 1 hour, 2 hours, 3 hours and 24 hours after the administration of CRL 41 153.
# mice [10] = assay: Behavioral despair; type: in vivo, mouse; settings: forcibly immersed mice, i.p.
# From the text: Half an hour after they have received CRL 41 153, groups of 6 mice are placed in a beaker filled with water to a height of 6 cm. The total period of immobility between the 2nd and 6th minutes following immersion is noted.
# mice [11] = assay: Motility reduced by habituation to the enclosure; type: in vivo, mouse; settings: i.p.
# Protocol: After they have stayed In the actimeters for 18 hours, (he mice (6 per dose, 12 control animals) receive CRL 41 153. They are immediately returned to their respective enclosures and, half an hour later, their motility is recorded for 30 minutes.
# mice [12] = assay: Particular toxicity in grouped mice; settings: mice
# Protocol: The number of dead animals is noted after 1 hour, 2 hours, 3 hours, 4 hours and 24 hours.
# rats [13] = assay: Interaction with amphetamine; type: in vivo, rat; settings: i.p.
# Protocol: Amphetamine (2 mg/kg) is injected intraperitoneally into groups of 6 rats 30 minutes after the administration of CRL 41 153. […] 4 mg/kg and 16 mg/kg, CRL 41 153 potentiates the intensity and duration of the stereotypies induced by amphetamine.
# mice [14] = assay: Four plate test, traction and electric shock; type: in vivo, mouse; settings: i.p.
# Protocol: The test is performed on groups of 10 mice 30 minutes after the administration of CRL 41 153.
# CNS [15] = assay: Complementary tests by oral (gastric) administration; type: in vivo; settings: gastric vs i.p.
# mice [16] = assay: Interaction with reserpine; type: in vivo, mouse; settings: i.p.
# Protocol: Four hours after the intraperitoneal injection of 2.5 mg/kg of reserpine, groups of 6 mice receive CRL 41 153.
# rats [17] = assay: Overall behavior and reactivities in rats; type: in vivo, rat; settings: dose not stated
# Protocol: as §1, §2
# mice [18] = assay: Motility reduced by hypoxic aggression; type: in vivo, mouse; settings: i.p.
# Protocol: Half an hour after they have received CRL 41 153, the mice (10 per dose, 20 control animals) are subjected to acute hypobaric anoxia [pressure reduction of 600 mm Hg (i.e. about 8×10^4 Pa) in 90 seconds; release of vacuum in 45 seconds] and are then placed in an actimeter, where their motility is recorded for 10 minutes.
smiles,measurement,setting,value
CC(NC(C)(C)C)C(=O)c1ccc(N)cc1 (centres unmarked) [CRL 41 178],Effect on hypothermia induced by apomorphine,mice [1],antagonism of the hypothermia
same,Anticonvulsant effects (overall),CNS [2]; conclusion of the tests,anticonvulsant effects
same,Antidepressant effects (overall),CNS [2]; conclusion of the tests,more modest antidepressant effects; also recorded: antidepressant component
same,Stimulant effects (overall),CNS [2]; conclusion of the tests,distinct stimulant effects; also recorded: behaves as a stimulant as from the weakest doses
same,α-adrenergic stimulant effects (overall),CNS [2]; conclusion of the tests,moderate α-adrenergic stimulant effects
same,"Peripheral α-adrenergic signs (mydriasis, salivation, lacrimation, exophthalmos)",CNS [2]; species and dose not stated,mydriasis (with neither piloerection nor salivation)
same,Effect on stereotypies induced by apomorphine,rats [3],potentiation of the effects of apomorphine and amphetamine in rats
same,Duration of the sleep induced by barbital,mice [4],antagonism of the sleep induced by barbital
same,Effect of alpha-methyltyrosine on the stereotypies induced by the substance,[5],differs from amphetamine in the mechanism of the effects which cause stereotypies
same,"Affected foetuses, number",[6]; 5 mg/kg daily,1
same,Total foetuses (live),[6]; 5 mg/kg daily,90
same,"Affected foetuses, %",[6]; 5 mg/kg daily,1.11%
same,"Affected foetuses, number",[6]; 10 mg/kg daily,1
same,Total foetuses (live),[6]; 10 mg/kg daily,83
same,"Affected foetuses, %",[6]; 10 mg/kg daily,1.20%
same,"Affected foetuses, number",[6]; 50 mg/kg daily,1
same,Total foetuses (live),[6]; 50 mg/kg daily,92
same,"Affected foetuses, %",[6]; 50 mg/kg daily,1.10%
same,Effect on hypothermic action of oxotremorine,mice [7],antagonism of the hypothermia
same,Spontaneous motor activity,mice [8],increase in the motor activity
same,Overall behavior: observed effects (summary),mice [9],excitation and hyperreactivity in mice and rats
same,Period of immobility due to despair,mice [10],reduction in the period of immobility
same,Motor activity of mice accustomed to their enclosure,mice [11],resumption in the activity of mice accustomed to their enclosure
same,Particular toxicity to grouped mice,mice [12],existence of a particular toxicity to grouped mice
same,Effect on stereotypies induced by amphetamine,rats [13],potentiation of the effects of apomorphine and amphetamine in rats
same,Effect on convulsant effects of electric shock,mice [14],"at high doses, antagonism of the convulsant effects of electric shock"
same,Action on gastric (oral) administration compared with intraperitoneal,CNS [15],same types of action as after intraperitoneal administration; also recorded: the antidepressant effects are apparently developed better by oral administration than by intraperitoneal administration
same,Effect on hypothermia induced by reserpine,mice [16],antagonism of the hypothermia
same,Effect on ptosis induced by reserpine,mice [16],slight antagonism of the ptosis induced by reserpine
same,Overall behavior: observed effects (summary),rats [17],excitation and hyperreactivity in mice and rats
same,Stereotype movements (summary),rats [17],presence of stereotype movements
same,Motor recovery of mice after hypobaric hypoxia,mice [18],improvement in the motor recovery of mice whose activity has been depressed following hypobaric hypoxia
